Experimental data from patent publication US20060069132A1, “Azolecarboxamide herbicides” (priority 2004, published 2006).

Experiments:
Surinam grass = test: Test C pre-/postemergence herbicide test; type: in vivo, Urochloa decumbens; details: for Surinam Grass plant response rating: 500 g ai/ha
Method in brief: (§1)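 Emerged plants at the 1- to 4-leaf stage (2–18 cm), or freshly planted seeds, received test chemicals in a non-phytotoxic solvent mixture with surfactant. Response was visually scored against controls after 12 to 14 days in the greenhouse, on a 0 (no effect) to 100 (complete control) scale.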

large crabgrass = test: Test C pre-/postemergence herbicide test; type: in vivo, Digitaria sanguinalis; details: for Crabgrass, Large plant response rating: 500 g ai/ha
Method in brief: as §1

goosegrass = test: Test C pre-/postemergence herbicide test; type: in vivo, Eleusine indica; details: for Goosegrass plant response rating: 500 g ai/ha
Method in brief: as §1

johnsongrass = test: Test C pre-/postemergence herbicide test; type: in vivo, Sorghum halepense; details: for Johnsongrass plant response rating: 500 g ai/ha
Method in brief: as §1

kochia = test: Test C pre-/postemergence herbicide test; type: in vivo, Kochia scoparia; details: for Kochia plant response rating: 500 g ai/ha
Method in brief: as §1

pigweed = test: Test C pre-/postemergence herbicide test; type: in vivo, Amaranthus retroflexus; details: for Pigweed plant response rating: 500 g ai/ha
Method in brief: as §1

soybean = test: Test C pre-/postemergence herbicide test; type: in vivo, Glycine max; details: for Soybean plant response rating: 500 g ai/ha
Method in brief: as §1

velvetleaf = test: Test C pre-/postemergence herbicide test; type: in vivo, Abutilon theophrasti; details: for Velvetleaf plant response rating: 500 g ai/ha
Method in brief: as §1

rice = test: Test C flooded paddy test; type: in vivo, Oryza sativa; details: for Plant response rating, Rice: visual rating after 12 to 14 days
Method in brief: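 Injury scored visually against controls on a 0 (no effect) to 100 (complete control) scale, 12 to 14 days after treatment in greenhouse. Flooded paddy plants treated at 2-leaf stage; postemergence plants at 1- to 4-leaf stage, 2 to 18 cm tall.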

[1] = 125 g ai/ha, scale 0 (no effect) to 100 (complete control), visual, 12 to 14 days, preemergence
[2] = 250 g ai/ha, scale 0 to 100 (0 no effect, 100 complete control), visual, 12 to 14 days, preemergence
[3] = Postemergence, 250 g ai/ha, scale 0 to 100, 0 no effect, 100 complete control
[4] = Preemergence, scale 0 to 100, 0 no effect, 100 complete control
[5] = postemergence, 62 g ai/ha, scale 0 to 100
[6] = Postemergence, 125 g ai/ha, scale 0 to 100, 0 no effect, 100 complete control
[7] = 500 g ai/ha, scale 0 to 100 (0 no effect, 100 complete control)
[8] = 62 g ai/ha, preemergence, scale 0 to 100
[9] = 250 g ai/ha, scale 0-100, preemergence

Compound: C#CCNC(=O)c1cccc(NC(=O)c2cc(C(C)(C)C)nn2CC)c1 [Compound 47]
- Plant response rating (0 = no effect, 100 = complete control), Surinam Grass (Surinam grass; 62 g ai/ha, preemergence): 0
- Plant response rating, Surinam Grass (Surinam grass; [1]): 10
- Plant response rating, Surinam Grass (Surinam grass; [2]): 60
- Surinam Grass plant response rating (Surinam grass; Postemergence, scale 0 to 100): 70
- Plant response rating, Surinam Grass (Surinam grass; [3]): 60
- Surinam Grass plant response rating (Surinam grass; [4]): 80
- Plant response rating, Surinam Grass (Surinam grass; [5]): 30
- Plant response rating (0 = no effect, 100 = complete control), Crabgrass, Large (large crabgrass; 62 g ai/ha, preemergence): 100
- Plant response rating, Crabgrass, Large (large crabgrass; [1]): 100
- Plant response rating, Crabgrass, Large (large crabgrass; [2]): 100
- Crabgrass, Large plant response rating (large crabgrass; Postemergence, scale 0 to 100): 90
- Crabgrass, Large plant response rating (large crabgrass; [4]): 100
- Plant response rating, Crabgrass, Large (large crabgrass; [5]): 90
- Plant response rating (0 = no effect, 100 = complete control), Goosegrass (goosegrass; 62 g ai/ha, preemergence): 80
- Plant response rating, Goosegrass (goosegrass; [1]): 100
- Plant response rating, Goosegrass (goosegrass; [2]): 100
- Goosegrass plant response rating (goosegrass; Postemergence, scale 0 to 100): 80
- Plant response rating, Goosegrass (goosegrass; [6]): 60
- Plant response rating, Goosegrass (goosegrass; [3]): 60
- Goosegrass plant response rating (goosegrass; [4]): 100
- Plant response rating, Goosegrass (goosegrass; [5]): 50
- Plant response rating (0 = no effect, 100 = complete control), Johnsongrass (johnsongrass; 62 g ai/ha, preemergence): 20
- Plant response rating, Johnsongrass (johnsongrass; [1]): 100
- Plant response rating, Johnsongrass (johnsongrass; [2]): 100
- Johnsongrass plant response rating (johnsongrass; Postemergence, scale 0 to 100): 90
- Plant response rating, Johnsongrass (johnsongrass; [6]): 30
- Plant response rating, Johnsongrass (johnsongrass; [3]): 90
- Johnsongrass plant response rating (johnsongrass; [4]): 100
- Plant response rating, Johnsongrass (johnsongrass; [5]): 30
- Plant response rating (0 = no effect, 100 = complete control), Kochia (kochia; 62 g ai/ha, preemergence): 10
- Plant response rating, Kochia (kochia; [1]): 10
- Plant response rating, Kochia (kochia; [2]): 10
- Kochia plant response rating (kochia; Postemergence, scale 0 to 100): 100
- Plant response rating, Kochia (kochia; [6]): 100
- Plant response rating, Kochia (kochia; [3]): 100
- Kochia plant response rating (kochia; [4]): 40
- Plant response rating, Kochia (kochia; [5]): 100
- Plant response rating (0 = no effect, 100 = complete control), Pigweed (pigweed; 62 g ai/ha, preemergence): 100
- Plant response rating, Pigweed (pigweed; [1]): 100
- Plant response rating, Pigweed (pigweed; [2]): 100
- Pigweed plant response rating (pigweed; Postemergence, scale 0 to 100): 100
- Plant response rating, Pigweed (pigweed; [3]): 100
- Pigweed plant response rating (pigweed; [4]): 100
- Plant response rating, Pigweed (pigweed; [5]): 100
- Plant response rating (0 = no effect, 100 = complete control), Soybean (soybean; 62 g ai/ha, preemergence): 0
- Plant response rating, Soybean (soybean; [1]): 0
- Plant response rating, Soybean (soybean; [2]): 10
- Soybean plant response rating (soybean; Postemergence, scale 0 to 100): 100
- Plant response rating, Soybean (soybean; [3]): 100
- Soybean plant response rating (soybean; [4]): 20
- Plant response rating, Soybean (soybean; [5]): 100
- Plant response rating (0 = no effect, 100 = complete control), Velvetleaf (velvetleaf; 62 g ai/ha, preemergence): 40
- Plant response rating, Velvetleaf (velvetleaf; [1]): 40
- Plant response rating, Velvetleaf (velvetleaf; [2]): 100
- Velvetleaf plant response rating (velvetleaf; Postemergence, scale 0 to 100): 90
- Plant response rating, Velvetleaf (velvetleaf; [3]): 80
- Velvetleaf plant response rating (velvetleaf; [4]): 100
- Plant response rating, Velvetleaf (velvetleaf; [5]): 80
- Rice plant response rating (rice; 62 g ai/ha, scale 0 to 100 (0 no effect, 100 complete control)): 0
- Rice plant response rating (rice; 125 g ai/ha, scale of 0 to 100, 0 is no effect, 100 is complete control): 20
- Plant response rating, Rice (rice; 250 g ai/ha, scale 0 to 100 (0 no effect, 100 complete control)): 20
- Plant response rating, Rice (rice; [7]): 50

Compound: CCn1nc(C(C)(C)C)cc1C(=O)Nc1cc(C(=S)N(C)C)ccn1 [Compound 334]
- Plant response rating, Surinam Grass (Surinam grass; [8]): 55
- Plant response rating, Surinam Grass (Surinam grass; [9]): 95
- Plant response rating, Crabgrass, Large (large crabgrass; [8]): 85
- Plant response rating, Crabgrass, Large (large crabgrass; [1]): 100
- Plant response rating, Crabgrass, Large (large crabgrass; [9]): 100
- Plant response rating, Goosegrass (goosegrass; [8]): 100
- Plant response rating, Goosegrass (goosegrass; [1]): 100
- Plant response rating, Goosegrass (goosegrass; [9]): 100
- Plant response rating, Johnsongrass (johnsongrass; [8]): 90
- Plant response rating, Johnsongrass (johnsongrass; [1]): 100
- Plant response rating, Johnsongrass (johnsongrass; [9]): 100
- Plant response rating, Kochia (kochia; [8]): 100
- Plant response rating, Kochia (kochia; [1]): 100
- Plant response rating, Kochia (kochia; [9]): 100
- Plant response rating, Pigweed (pigweed; [8]): 100
- Plant response rating, Pigweed (pigweed; [1]): 100
- Plant response rating, Pigweed (pigweed; [9]): 100
- Plant response rating, Soybean (soybean; [8]): 15
- Plant response rating, Soybean (soybean; [9]): 80
- Plant response rating, Velvetleaf (velvetleaf; [8]): 5
- Plant response rating, Velvetleaf (velvetleaf; [9]): 85
- Rice plant response rating (rice; 62 g ai/ha, scale 0 to 100): 70
- Rice plant response rating (rice; 125 g ai/ha, scale 0 to 100 (0 no effect, 100 complete control)): 75
- Rice plant response rating (rice; 250 g ai/ha, scale of 0 to 100, 0 is no effect, 100 is complete control): 80
- Plant response rating, Rice (rice; [7]): 85
